The numbers were not newly measured in US20080195229A1, “Decellularized pericardial tissue” (priority 2007, published 2008), which cites them from elsewhere.

Each structure is given as a SMILES string.

One series has as its system rabbit. Particulars: in vivo, iv.
The next series deals with 3T3 fibroblasts. Particulars: in vitro.
Series [1] relates to Chinese hamster ovary (CHO-K1) cells. Particulars: in vitro.

Consider `C[C@H](CCC(=O)O)[C@H]1CC[C@H]2[C@@H]3CC[C@@H]4C[C@H](O)CC[C@]4(C)[C@H]3C[C@H](O)[C@]12C` [Deoxycholic acid], for which, in the series with rabbit, the LD50 (as a rule, the dose at which mortality reaches 50%) is 15 mg/kg. For the setting “alcohol”, the solubility in alcohol entry is recorded as “soluble”. Also, the solubility in water entry (water) was “sparingly soluble”.

On to `COC(=O)C1=CO[C@@H](O)[C@@H]2C(CO)=CC[C@H]12` [genipin], for which the “cytotoxicity compared with glutaraldehyde” value with 3T3 fibroblasts is reported as “substantially less cytotoxic than glutaraldehyde”. Also, the “clastogenic response (genotoxicity)” value in series [1] is on record as “does not cause clastogenic response”.
